Patent US12509431B2, “1,4-dihydroquinazolinone compounds and uses thereof” (Edgewise Therapeutics, Inc., priority 2022, dated 2025)

What was measured:
[1] = molecular target: T1, myosin+native RLC (Sus scrofa, UniProt P79293); test: NADH-coupled actin-activated ATPase assay, myosin + native RLC; type: biochemical; conditions: 1 μM myosin, rabbit skeletal actin, 25° C., 1% DMSO
T1 construct: Full-length myosin was resuspended to 1 mg/mL
Description: Full-length myosin was resuspended to 1 mg/mL in a buffer containing 500 mM KCl, 10 mM KPi, 15 mM CDTA, pH 8.5. Triton-X was then added to a final concentration of […], and the suspension was agitated for 15 minutes at room temperature to selectively remove the regulatory light chain (RLC). RLC-removed myosin was then precipitated and collected and resuspended in a buffer containing 400 mM KCl, 50 mM Mops, pH 7, 2 mM MgCl2, and 1 mM DTT. Recombinantly expressed and purified human ventricle RLC was added in a 3-fold molar excess to myosin and incubated on ice for 2 hours to allow for reassociation of the RLC onto myosin. Triton (0.1%) was added to the reaction to prevent any non-specific binding events. RLC-exchanged myosin was then precipitated and collected and resuspended in a buffer containing 12 mM PIPES, pH 6.8, […], 2 mM MgCl2, and 1 mM DTT. RLC removal and exchange were confirmed by SDS-PAGE and proteins were visualized using coomassie stain.
Myosin was resuspended in buffer A (f.c.=12 mM PIPES, pH 6.8, 30 mM KCl, 2 mM MgCl2, 1 mM DTT, 0.1 mg/mL BSA, 0.01% (v/v) Antifoam 204, and 0.6% (v/v) PK/LDH (final reaction contains ≥3.6 U/mL PK and >5.4 U/mL LDH)) at final concentrations of 1 μM for myosin+native RLC and 2 μM for myosin+removed RLC and myosin+human ventricle RLC. Buffer A was then mixed with an equal volume of buffer B (f.c.=12 mM PIPES, pH 6.8, 30 mM KCl, 2 mM MgCl2, 1 mM DTT, 0.1 mg/mL BSA, 0.01% (v/v) Antifoam 204, 0.5 mM NADH, 1.5 mM phosphoenolpyruvate, 1 mM ATP, and 0.3 mg/mL filamentous rabbit skeletal actin) in a 384-well plate. Dose-dependent compound effects were assessed by adding the compounds at varying concentrations between 100 μM and 2 nM, all with a constant final DMSO concentration of 1% v/v. The reactions were run at a constant temperature of 25° C. in the plate reader to monitor the change in A340 over time. Measurements were taken every 90 sec for 75 min to generate raw time-domain absorbance data, which was processed to normalized reaction rates. Normalized enzymatic rates were calculated, using rates observed in 1% (v/v) in DMSO as 100% and 0 slope as 0%. Compound-specific activity curves were generated by plotting the normalized rates versus compound concentration and fitting the data to a 4-parameter logistic model. In addition to the fit parameters, the IC25% was calculated, relative to the 100% normalized value.

[2] = molecular target: T2, Porcine Ventricle myofibrils (left ventricle of Yucatan minipigs) (Sus scrofa, UniProt P79293); test: Myofibril ATPase assay (PK/LDH NADH-coupled), ventricle myofibrils; type: biochemical
T2 construct: Myofibrils from porcine cardiac muscle was isolated from the left ventricle of Yucatan minipigs; tissue Exemplar Genetics; host or cells: left ventricle of Yucatan minipigs
In short: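 NADH depletion (A340) coupled through pyruvate kinase/lactate dehydrogenase reports ATPase rate of porcine left-ventricle myofibrils over 75 min kinetic reads. Regression slopes, vehicle-normalized, fitted by 4-parameter logistic give EC25 and, where available, EC50.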

T1 sequence (P79293 whole entry): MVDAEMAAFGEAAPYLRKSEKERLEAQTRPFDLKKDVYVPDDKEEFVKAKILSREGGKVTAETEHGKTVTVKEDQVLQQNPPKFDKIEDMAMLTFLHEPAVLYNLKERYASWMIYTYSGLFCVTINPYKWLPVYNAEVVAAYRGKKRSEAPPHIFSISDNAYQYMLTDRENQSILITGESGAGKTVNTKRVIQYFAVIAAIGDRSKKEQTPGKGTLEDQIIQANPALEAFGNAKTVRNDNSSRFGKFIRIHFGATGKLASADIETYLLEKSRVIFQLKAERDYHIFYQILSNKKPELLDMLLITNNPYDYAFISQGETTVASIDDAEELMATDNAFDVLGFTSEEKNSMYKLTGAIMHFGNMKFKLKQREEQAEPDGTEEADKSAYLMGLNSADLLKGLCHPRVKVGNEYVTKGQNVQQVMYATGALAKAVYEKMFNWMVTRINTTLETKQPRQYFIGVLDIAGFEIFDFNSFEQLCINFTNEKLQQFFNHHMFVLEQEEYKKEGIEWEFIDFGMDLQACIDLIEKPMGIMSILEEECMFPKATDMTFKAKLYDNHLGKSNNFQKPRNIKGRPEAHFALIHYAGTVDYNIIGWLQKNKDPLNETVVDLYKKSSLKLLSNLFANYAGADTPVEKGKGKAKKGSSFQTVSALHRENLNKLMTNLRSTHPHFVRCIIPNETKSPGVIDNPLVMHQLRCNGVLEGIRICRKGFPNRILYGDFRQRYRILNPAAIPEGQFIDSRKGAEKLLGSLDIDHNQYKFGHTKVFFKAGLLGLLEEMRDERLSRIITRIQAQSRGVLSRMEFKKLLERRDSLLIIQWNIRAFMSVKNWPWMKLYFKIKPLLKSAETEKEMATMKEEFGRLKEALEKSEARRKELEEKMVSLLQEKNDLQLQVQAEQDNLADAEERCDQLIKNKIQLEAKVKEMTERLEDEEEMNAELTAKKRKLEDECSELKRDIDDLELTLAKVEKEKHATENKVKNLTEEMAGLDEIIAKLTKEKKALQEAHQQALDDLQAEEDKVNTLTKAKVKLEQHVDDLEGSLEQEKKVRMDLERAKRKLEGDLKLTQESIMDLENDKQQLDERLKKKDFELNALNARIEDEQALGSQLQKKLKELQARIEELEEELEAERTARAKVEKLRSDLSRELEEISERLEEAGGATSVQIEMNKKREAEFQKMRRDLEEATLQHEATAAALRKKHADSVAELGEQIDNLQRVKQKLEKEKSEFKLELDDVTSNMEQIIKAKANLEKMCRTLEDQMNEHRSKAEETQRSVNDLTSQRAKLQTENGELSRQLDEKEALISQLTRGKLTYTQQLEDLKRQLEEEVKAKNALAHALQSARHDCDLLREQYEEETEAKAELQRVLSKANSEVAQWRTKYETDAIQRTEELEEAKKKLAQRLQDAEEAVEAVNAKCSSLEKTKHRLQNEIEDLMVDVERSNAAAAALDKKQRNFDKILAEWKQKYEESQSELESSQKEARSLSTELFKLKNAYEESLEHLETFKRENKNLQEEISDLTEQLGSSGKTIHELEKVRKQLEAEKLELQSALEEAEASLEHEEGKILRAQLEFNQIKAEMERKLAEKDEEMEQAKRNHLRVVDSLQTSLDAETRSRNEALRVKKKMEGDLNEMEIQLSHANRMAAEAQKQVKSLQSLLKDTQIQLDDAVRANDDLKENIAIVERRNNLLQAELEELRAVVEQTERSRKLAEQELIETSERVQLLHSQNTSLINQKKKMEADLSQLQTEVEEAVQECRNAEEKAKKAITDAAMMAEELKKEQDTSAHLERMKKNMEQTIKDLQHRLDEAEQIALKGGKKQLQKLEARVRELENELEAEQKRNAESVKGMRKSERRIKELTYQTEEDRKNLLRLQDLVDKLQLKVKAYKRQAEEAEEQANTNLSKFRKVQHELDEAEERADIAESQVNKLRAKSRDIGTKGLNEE
T2 sequence (P79293 whole entry): as above

SMILES | Potency, Full-length myosin + native porcine ventricle RLC [1] | Porcine Ventricle IC25 ([2]; Table 8) | Porcine Ventricle IC25 ([2]; Table 7)
C[C@@H](NC(=O)CN1Cc2c(ccc(F)c2F)NC1=O)c1ncc(C#N)cc1F [Compound B141, (R)—N-(1-(5-cyano-3-fluoropyridin-2-yl)ethyl)-2-(5,6-difluoro-2-oxo-1,4-dihydroquinazolin-3(2H)-yl)acetamide] | 15.48 µM | 3.094 µM | –
O=C(CN1Cc2c(ccc(F)c2F)NC1=O)N[C@@H]1COc2cc(F)cc(F)c21 [Compound B147] | 0.63 µM | 0.07766 µM | –
C[C@H](NC(=O)CN1Cc2cc(F)ccc2NC1=O)c1ccc(F)cc1F [Compound B247, N-[(1S)-1-(2,4-Difluorophenyl)ethyl]-2-(6-fluoro-2-oxo-1,4-dihydroquinazolin-3-yl)acetamide] | 0.97 µM | 0.2968 µM | –
O=C(CN1Cc2cc(F)ccc2NC1=O)N[C@@H]1COc2cc(F)cc(F)c21 [Compound B145] | 1.19 µM | 0.0512 µM | –
C[C@H](NC(=O)CN1Cc2cc(F)ccc2NC1=O)c1ncc(C#N)cc1F [Compound B199] | 0.56 µM | 0.5693 µM | –
O=C(CN1C(=O)Nc2cccnc2C12CC2)N[C@@H]1COc2cc(F)cc(F)c21 [Compound N33] | 0.40 µM | – | 0.2832 µM
C[C@H](NC(=O)CN1Cc2c(ccc(F)c2F)NC1=O)c1ccc(C#N)cc1F [Compound B189] | 0.39 µM | 0.07743 µM | –
CC(NC(=O)CN1Cc2cc(F)ccc2NC1=O)c1ccc(C#N)cc1F (single isomer, unassigned) [Compound B206] | 0.97 µM | 0.04769 µM | –
C[C@H](NC(=O)CN1Cc2c(ccc(F)c2F)NC1=O)c1ncc(F)cc1F [Compound B191] | 0.45 µM | 0.1913 µM | –
N#Cc1cnc2c(c1)OCC2NC(=O)CN1Cc2c(ccc(F)c2F)NC1=O (single isomer, unassigned) [Compound B65] | 0.55 µM | 0.1667 µM | –
